Results published in ChEMBL document CHEMBL1128999, “Synthesis and evaluation of 2-aryl-4H-3,1-benzoxazin-4-ones as C1r serine protease inhibitors” (Bioorg Med Chem Lett, 1996).

Legend:
[1] = biological target: T1, Complement C1r subcomponent (Homo sapiens, UniProt P00736); test: (§1) Inhibitory activity against C1r serine protease
T1 sequence (P00736 whole entry): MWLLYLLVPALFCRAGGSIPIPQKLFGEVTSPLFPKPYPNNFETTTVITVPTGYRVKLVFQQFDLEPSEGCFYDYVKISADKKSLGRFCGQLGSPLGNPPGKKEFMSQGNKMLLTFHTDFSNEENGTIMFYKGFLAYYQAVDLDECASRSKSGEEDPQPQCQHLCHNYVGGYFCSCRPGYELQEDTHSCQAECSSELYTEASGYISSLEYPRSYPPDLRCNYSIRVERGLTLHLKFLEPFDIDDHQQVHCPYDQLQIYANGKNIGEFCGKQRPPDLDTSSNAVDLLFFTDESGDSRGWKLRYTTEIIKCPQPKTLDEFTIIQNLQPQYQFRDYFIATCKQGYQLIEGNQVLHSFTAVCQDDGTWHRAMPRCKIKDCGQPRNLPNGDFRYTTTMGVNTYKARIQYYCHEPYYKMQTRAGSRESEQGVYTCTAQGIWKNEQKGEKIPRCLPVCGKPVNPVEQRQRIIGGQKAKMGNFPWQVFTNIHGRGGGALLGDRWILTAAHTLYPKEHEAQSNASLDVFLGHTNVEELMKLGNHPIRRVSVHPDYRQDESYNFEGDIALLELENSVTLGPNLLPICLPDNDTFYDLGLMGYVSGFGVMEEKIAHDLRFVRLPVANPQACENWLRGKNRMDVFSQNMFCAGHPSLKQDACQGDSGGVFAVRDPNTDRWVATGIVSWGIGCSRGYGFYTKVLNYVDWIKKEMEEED

[2] = biological target: T1, Complement C1r subcomponent; test: as §1; remark: listed apart in the source
[3] = biological target: T2, Complement C1r subcomponent (Homo sapiens) (UniProt P00736); test: Compound was evaluated for percentage inhibitory activity against C1r serine protease in assay 1 at a concentration of 10 uM
T2 sequence (whole entry): T1 sequence (P00736 whole entry)

[4] = biological target: T1, Complement C1r subcomponent; test: Inhibition of C1r serine protease
[5] = biological target: T2, Complement C1r subcomponent (Homo sapiens); settings: at 10 µM
[6] = biological target: T3, Complement C1s subcomponent (Homo sapiens, UniProt P09871); test: Compound was evaluated for inhibitory activity against C1s serine protease.
T3 sequence (P09871 whole entry): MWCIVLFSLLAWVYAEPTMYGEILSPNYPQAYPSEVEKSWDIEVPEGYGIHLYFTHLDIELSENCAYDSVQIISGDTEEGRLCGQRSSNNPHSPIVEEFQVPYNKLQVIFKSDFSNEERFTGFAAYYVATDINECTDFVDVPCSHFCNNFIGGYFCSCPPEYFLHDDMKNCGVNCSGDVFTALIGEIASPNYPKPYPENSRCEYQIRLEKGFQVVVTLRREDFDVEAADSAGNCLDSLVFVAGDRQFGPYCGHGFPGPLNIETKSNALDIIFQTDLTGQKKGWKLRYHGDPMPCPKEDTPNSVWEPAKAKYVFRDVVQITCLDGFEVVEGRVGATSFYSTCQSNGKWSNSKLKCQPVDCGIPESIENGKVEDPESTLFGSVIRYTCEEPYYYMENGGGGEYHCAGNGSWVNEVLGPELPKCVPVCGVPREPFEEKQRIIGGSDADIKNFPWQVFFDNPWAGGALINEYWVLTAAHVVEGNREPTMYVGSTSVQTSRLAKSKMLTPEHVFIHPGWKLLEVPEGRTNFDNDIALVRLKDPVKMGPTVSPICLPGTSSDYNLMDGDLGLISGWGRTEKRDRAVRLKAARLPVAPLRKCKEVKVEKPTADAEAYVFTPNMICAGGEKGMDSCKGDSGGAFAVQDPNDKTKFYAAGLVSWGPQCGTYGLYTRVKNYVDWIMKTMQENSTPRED

[7] = biological target: T1, Complement C1r subcomponent; test: Compound was evaluated for inhibitory activity against C1r serine protease.
Kallikrein-1 = Kallikrein-1 (Homo sapiens, UniProt P06870); test: Compound was evaluated for inhibitory activity against Kallikrein.
Chain of Kallikrein-1 (P06870 whole entry): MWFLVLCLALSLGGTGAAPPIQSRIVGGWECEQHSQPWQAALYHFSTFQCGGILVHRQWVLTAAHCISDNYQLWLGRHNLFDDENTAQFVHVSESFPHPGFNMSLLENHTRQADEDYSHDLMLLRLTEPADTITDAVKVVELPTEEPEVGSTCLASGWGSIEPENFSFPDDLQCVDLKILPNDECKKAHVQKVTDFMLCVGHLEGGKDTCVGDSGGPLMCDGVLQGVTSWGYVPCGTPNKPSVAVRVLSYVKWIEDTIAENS

Prothrombin = Prothrombin (Homo sapiens, UniProt P00734); test: Compound was evaluated for inhibitory activity against Thrombin.
Plasminogen = Plasminogen (Homo sapiens, UniProt P00747); test: Compound was evaluated for inhibitory activity against plasmin.
Chain of Plasminogen (P00747 97-580 limits assumed): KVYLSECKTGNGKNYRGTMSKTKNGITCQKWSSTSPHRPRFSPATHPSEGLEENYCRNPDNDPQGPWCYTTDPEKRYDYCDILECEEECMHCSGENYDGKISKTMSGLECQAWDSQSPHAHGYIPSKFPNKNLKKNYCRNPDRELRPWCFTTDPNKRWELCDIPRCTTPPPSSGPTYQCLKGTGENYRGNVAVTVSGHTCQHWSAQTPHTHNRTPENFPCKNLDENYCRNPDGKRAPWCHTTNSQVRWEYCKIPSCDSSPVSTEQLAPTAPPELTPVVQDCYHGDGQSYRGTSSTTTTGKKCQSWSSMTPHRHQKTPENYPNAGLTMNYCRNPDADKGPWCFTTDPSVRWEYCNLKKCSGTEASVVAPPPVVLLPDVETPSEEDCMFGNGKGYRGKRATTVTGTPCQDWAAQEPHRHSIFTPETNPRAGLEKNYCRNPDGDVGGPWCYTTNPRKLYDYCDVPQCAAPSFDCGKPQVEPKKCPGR
Chain of Plasminogen (P00747 581-810 limits assumed): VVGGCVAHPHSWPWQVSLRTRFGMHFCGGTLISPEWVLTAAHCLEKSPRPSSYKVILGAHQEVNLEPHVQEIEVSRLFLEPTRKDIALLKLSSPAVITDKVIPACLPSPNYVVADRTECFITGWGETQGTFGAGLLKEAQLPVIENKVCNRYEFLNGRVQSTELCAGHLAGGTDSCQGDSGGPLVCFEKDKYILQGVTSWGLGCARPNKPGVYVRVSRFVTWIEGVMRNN

[8] = biological target: T1, Complement C1r subcomponent; test: Compound was evaluated for inhibitory activity against C1r serine protease in assay 2 at t=60 min.
Serine protease 1 = Serine protease 1 (Homo sapiens, UniProt P07477); test: Compound was evaluated for inhibitory activity against Trypsin.
Chain of Serine protease 1 (P07477 whole entry): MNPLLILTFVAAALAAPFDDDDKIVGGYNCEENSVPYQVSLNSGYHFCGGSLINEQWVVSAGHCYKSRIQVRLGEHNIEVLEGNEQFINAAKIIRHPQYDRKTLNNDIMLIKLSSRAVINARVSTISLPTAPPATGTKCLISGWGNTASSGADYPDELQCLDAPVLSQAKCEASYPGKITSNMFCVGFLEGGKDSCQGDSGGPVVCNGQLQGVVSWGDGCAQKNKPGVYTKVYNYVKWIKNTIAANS

[9] = biological target: T1, Complement C1r subcomponent; test: Compound was evaluated for inhibitory activity against C1r serine protease in assay 1

| Compound | IC50 [1] [µM] | IC50 [2] [µM] | IC50 [4] [µM] | other results |
| --- | --- | --- | --- | --- |
| COc1ccc2c(=O)oc(-c3ccccc3I)nc2c1 | > 62.5 | > 62.5 | – | inhibition [3]: 27% |
| O=c1oc(-c2ccccc2C(F)(F)F)nc2ccccc12 | 35.4 | > 62.5 | 4.2 | – |
| O=C(O)c1ccccc1-c1nc2ccccc2c(=O)o1 | > 62.5 | > 62.5 | – | inhibition [5]: 25% |
| O=c1oc(-c2ccccc2I)nc2cccc(Cl)c12 | 13.5 | 57 | 3 | – |
| COc1cc2nc(-c3ccccc3I)oc(=O)c2cc1OC | > 62.5 | > 62.5 | – | inhibition [3]: 18% |
| N=C(N)c1ccc2cc(OC(=O)c3ccc(N=C(N)N)cc3)ccc2c1 [NAFAMOSTAT] | – | 12 | 1 | IC50 [6]: 140 nM; IC50 [7]: 1040 nM; IC50 (Kallikrein-1): 0.65 µM; IC50 (Prothrombin): 290 nM |
| O=c1oc(-c2ccccc2Br)nc2ccccc12 | 32 | 46 | 9.5 | – |
| O=c1oc(-c2ccccc2I)nc2ccc(Cl)cc12 | 7.8 | 27.3 | 3 | – |
| O=c1oc(-c2ccccc2I)nc2cc3ccccc3cc12 | > 62.5 | > 62.5 | 0.7 | – |
| COc1ccc2nc(-c3ccccc3I)oc(=O)c2c1 | > 62.5 | > 62.5 | 5 | – |
| O=c1oc(-c2ccccc2[N+](=O)[O-])nc2ccccc12 | 15 | > 62.5 | 36.3 | – |
| O=c1oc(Cc2ccccc2I)nc2ccccc12 | 26 | 40 | 6 | – |
| O=c1oc(-c2ccccc2I)nc2cc(Cl)c(Cl)cc12 | > 62.5 | > 62.5 | 1.7 | – |
| O=c1oc(-c2ccccc2I)nc2ccccc12 | 16.7 | – | – | IC50 (Plasminogen): 6.68 µM; IC50 [6]: 1250 nM; IC50 [8]: 50 µM; IC50 [7]: 1370 nM; IC50 (Kallikrein-1): 9.89 µM; IC50 (Serine protease 1): 15.3 µM; IC50 [9]: 1400 nM; IC50 (Prothrombin): 510 nM |
| O=c1oc(-c2ccccc2I)nc2cc([N+](=O)[O-])ccc12 | 22 | > 62.5 | – | inhibition [5]: 0% |
